# Source: patent publication EP0007672A1, “Isocyanoalkenes, process and useful intermediates for their preparation, pharmaceutical and fungicidal preparations containing those isocyanoalkenes and the use of the fungicidal preparations in agriculture” (GIST-BROCADES N.V., priority 1978, dated 1980)
# Where two headings read alike, the source gives them in different places.
# Legend:
# Assay in all cases: MIC (Minimum Inhibitory Concentration)
# Format in all cases: cell-based
# Aspergillus flavus = Aspergillus flavus A 2385
# Aspergillus parasiticus = settings: for MIC: Aspergillus parasiticus A 2396; for MIC values: Aspergillus parasiticus A 2397
# Aspergillus versiodor = Aspergillus versiodor Nr. 7
# Bacillus subtilis = settings: ATCC6633; Bacillus subtilis ATCC 6633
# Candida albicans = test system: Candida albicans
# Diplococcus pneumoniae = settings: Streptococcus pneumoniae; Diplococcus pneumoniae A 2783
# Fusarium = Fusarium A 3241
# Pasteurella multocida = Pasteurella multocida A 723; read-out: MIC values
# Penicillium islandicum = settings: Talaromyces islandicus; Penicillium islandicum D 189
# Penicillium italicum = Penicillium italicum 278-65
# Penicillium patalum = Penicillium patalum A 2389
# Penicillium rubrum = settings: Talaromyces ruber; Penicillium rubrum A 2395
# Penicillium veridicatum = Penicillium veridicatum A 2370
# Proteus morganii = settings: Morganella morganii; Proteus morganii 2241
# Rhizoctonia solani = Rhizoctonia solani 200-25; read-out: MIC values
# Staphylococcus aureus = test system: Staphylococcus aureus
# Trichophyton equinum = test system: Trichophyton equinum
# [1] = test system: Trichophyton mentagrophytus
# Trichophyton quickeaneum = Trichophyton quickeaneum A 2040; read-out: MIC values
# Trichophyton rubrum = test system: Trichophyton rubrum
# [2] = test system: Trichophyton schoenleinii; settings: Trichophyton schoenleinii 435-63; read-out: MIC values
# [3] = test system: Trichophyton soudanese joyeux; settings: Trichophyton soudanese joyeux 440-63; read-out: MIC values
# Trichophyton tonsurans = Trichophyton tonsurans 561-50; read-out: MIC values
# Trichophyton verrucosum = test system: Trichophyton verrucosum
# Trichophyton violoceum = Trichophyton violoceum 442-62; read-out: MIC values
# [4] = test system: Streptococcus haemolyticus; settings: Streptococcus haemolyticus A 1088; read-out: MIC values
# Fusarium (bulb) = Fusarium (bulb) A 3252
# Fusarium (tulip) = Fusarium (tulip) A 3253
# Fusarium solani = Fusarium solani A 3245; read-out: MIC values
# [5] = Candida albicans A 7, read-out: MIC values
# [6] = Candida albicans A 3140, read-out: MIC values
# [7] = Candida albicans A 3141, read-out: MIC values
# [8] = Candida albicans A 3144, read-out: MIC values
# [9] = Candida albicans A 3145, read-out: MIC values
# [10] = Candida albicans A 3165, read-out: MIC values
# [11] = Candida albicans A 3167, read-out: MIC values
# [12] = Candida albicans A 3168, read-out: MIC values
# [13] = Candida albicans A 3169, read-out: MIC values
# [14] = Candida albicans A 3171, read-out: MIC values
# [15] = Candida albicans A 3190, read-out: MIC values
# [16] = Candida albicans A 3191, read-out: MIC values
# [17] = Candida albicans A 3194, read-out: MIC values
# [18] = Candida albicans A 3196, read-out: MIC values
# [19] = Trichophyton equinum 182-76, read-out: MIC values
# [20] = Trichophyton equinum 856-71, read-out: MIC values
# [21] = Trichophyton mentagrophytus 367-68, read-out: MIC values
# [22] = Trichophyton mentagrophytus 421-67, read-out: MIC values
# [23] = Trichophyton mentagrophytus A 3252, read-out: MIC values
# [24] = Trichophyton mentagrophytus R 177, read-out: MIC values
# [25] = Trichophyton mentagrophytus R 178, read-out: MIC values
# [26] = Trichophyton mentagrophytus RRL 305, read-out: MIC values
# [27] = Trichophyton rubrum 218-65, read-out: MIC values
# [28] = Trichophyton rubrum 494-62, read-out: MIC values
# [29] = Trichophyton rubrum A 810, read-out: MIC values
# [30] = Trichophyton verrucosum 134-66, read-out: MIC values
# [31] = Trichophyton verrucosum A 2922, read-out: MIC values
# [32] = Candida albicans A 3166, read-out: MIC values
smiles,measurement,setting,value
"[C-]#[N+]C(=C(C)c1ccco1)S(=O)(=O)c1ccc(C)cc1 [Example 13, 1-isocyano-2-(2-furanyl)-1-(4-toluenesulphonyl)-1-propene]",MIC,Aspergillus flavus,12.5 µg/mL
same,MIC,Aspergillus parasiticus,6 µg/mL
same,MIC values,Aspergillus parasiticus,6 µg/mL
same,MIC,Aspergillus versiodor,> 100 µg/mL
same,MIC,Bacillus subtilis,1.5 µg/mL
same,MIC,Candida albicans; [5],0.1 µg/mL
same,MIC,Candida albicans; [6],0.2 µg/mL
same,MIC,Candida albicans; [7],< 0.05 µg/mL
same,MIC,Candida albicans; [8],0.2 µg/mL
same,MIC,Candida albicans; [9],< 0.05 µg/mL
same,MIC,Candida albicans; [10],1.5 µg/mL
same,MIC,Candida albicans; [11],0.4 µg/mL
same,MIC,Candida albicans; [12],0.2 µg/mL
same,MIC,Candida albicans; [13],0.2 µg/mL
same,MIC,Candida albicans; [14],< 0.05 µg/mL
same,MIC,Candida albicans; [15],< 0.05 µg/mL
same,MIC,Candida albicans; [16],< 0.05 µg/mL
same,MIC,Candida albicans; [17],< 0.05 µg/mL
same,MIC,Candida albicans; [18],< 0.05 µg/mL
same,MIC,Diplococcus pneumoniae,12.5 µg/mL
same,MIC,Fusarium,50 µg/mL
same,MIC,Pasteurella multocida,0.75 µg/mL
same,MIC,Penicillium islandicum,12.5 µg/mL
same,MIC,Penicillium italicum,3 µg/mL
same,MIC,Penicillium patalum,25 µg/mL
same,MIC,Penicillium rubrum,25 µg/mL
same,MIC,Penicillium veridicatum,3 µg/mL
same,MIC,Proteus morganii,12.5 µg/mL
same,MIC,Rhizoctonia solani,6 µg/mL
same,MIC,Staphylococcus aureus; Staphylococcus aureus A 321,12.5 µg/mL
same,MIC,Staphylococcus aureus; Staphylococcus aureus A 355,6 µg/mL
same,MIC,Staphylococcus aureus; Staphylococcus aureus A 2000,6 µg/mL
same,MIC,Trichophyton equinum; [19],1.5 µg/mL
same,MIC,Trichophyton equinum; [20],0.1 µg/mL
same,MIC,[1]; [21],3 µg/mL
same,MIC,[1]; [22],3 µg/mL
same,MIC,[1]; [23],3 µg/mL
same,MIC,[1]; [24],3 µg/mL
same,MIC,[1]; [25],12.5 µg/mL
same,MIC,[1]; [26],3 µg/mL
same,MIC,Trichophyton quickeaneum,0.4 µg/mL
same,MIC,Trichophyton rubrum; [27],0.8 µg/mL
same,MIC,Trichophyton rubrum; [28],0.8 µg/mL
same,MIC,Trichophyton rubrum; [29],0.8 µg/mL
same,MIC,[2],3 µg/mL
same,MIC,[3],6 µg/mL
same,MIC,Trichophyton tonsurans,3 µg/mL
same,MIC,Trichophyton verrucosum; [30],0.8 µg/mL
same,MIC,Trichophyton verrucosum; [31],3 µg/mL
same,MIC,Trichophyton violoceum,3 µg/mL
"[C-]#[N+]C(=Cc1ccc(OC)cc1)S(=O)(=O)c1ccc(C)cc1 [Example 23, 1-isocyano-2-(4-methoxyphenyl)-1-(4-toluenesulphonyl)-ethene]",MIC,Bacillus subtilis,3 µg/mL
same,MIC,Candida albicans; [5],1.5 µg/mL
same,MIC,Candida albicans; [6],1.5 µg/mL
same,MIC,Candida albicans; [7],1.5 µg/mL
same,MIC,"Candida albicans; Candida albicans A 3142, read-out: MIC values",1.5 µg/mL
same,MIC,"Candida albicans; Candida albicans A 3143, read-out: MIC values",1.5 µg/mL
same,MIC,Candida albicans; [8],1.5 µg/mL
same,MIC,Candida albicans; [9],1.5 µg/mL
same,MIC,Candida albicans; [10],1.5 µg/mL
same,MIC,Candida albicans; [32],1.5 µg/mL
same,MIC,Candida albicans; [11],1.5 µg/mL
same,MIC,Candida albicans; [12],1.5 µg/mL
same,MIC,Candida albicans; [13],1.5 µg/mL
same,MIC,Candida albicans; [14],1.5 µg/mL
same,MIC,"Candida albicans; Candida albicans A 3184, read-out: MIC values",1.5 µg/mL
same,MIC,Candida albicans; [15],1.5 µg/mL
same,MIC,Candida albicans; [16],1.5 µg/mL
same,MIC,"Candida albicans; Candida albicans A 3192, read-out: MIC values",1.5 µg/mL
same,MIC,Candida albicans; [17],1.5 µg/mL
same,MIC,Candida albicans; [18],1.5 µg/mL
same,MIC,Diplococcus pneumoniae,6 µg/mL
same,MIC,Pasteurella multocida,3 µg/mL
same,MIC,Proteus morganii,6 µg/mL
same,MIC,Staphylococcus aureus; Staphylococcus aureus A 321,3 µg/mL
same,MIC,Staphylococcus aureus; Staphylococcus aureus A 355,3 µg/mL
same,MIC,Staphylococcus aureus; Staphylococcus aureus A 2000,1.5 µg/mL
same,MIC,[4],< 0.05 µg/mL
same,MIC,"Trichophyton equinum; Trichophyton equinum 441-51, read-out: MIC values",1.5 µg/mL
same,MIC,Trichophyton equinum; [20],100 µg/mL
same,MIC,[1]; [21],25 µg/mL
same,MIC,[1]; [22],100 µg/mL
same,MIC,[1]; [23],100 µg/mL
same,MIC,[1]; [24],12.5 µg/mL
same,MIC,[1]; [25],> 100 µg/mL
same,MIC,[1]; [26],25 µg/mL
same,MIC,Trichophyton rubrum; [27],25 µg/mL
same,MIC,Trichophyton rubrum; [28],100 µg/mL
same,MIC,Trichophyton rubrum; [29],25 µg/mL
same,MIC,[2],3 µg/mL
same,MIC,[3],6 µg/mL
same,MIC,Trichophyton tonsurans,0.8 µg/mL
same,MIC,Trichophyton verrucosum; [30],1.5 µg/mL
same,MIC,Trichophyton violoceum,3 µg/mL
"C[C@@H]1C/C=C/C=C/C=C/C=C/[C@H](O[C@@H]2O[C@H](C)[C@@H](O)[C@H](N)[C@@H]2O)C[C@@H]2O[C@](O)(C[C@@H](O)C[C@H]3O[C@@H]3/C=C/C(=O)O1)C[C@H](O)[C@H]2C(=O)O [natamycin, reference compound]",MIC,Aspergillus flavus,50 µg/mL
same,MIC,Aspergillus parasiticus,2.5 µg/mL
same,MIC values,Aspergillus parasiticus,2.5 µg/mL
same,MIC,Aspergillus versiodor,6 µg/mL
same,MIC,Candida albicans; [5],12.5 µg/mL
same,MIC,Candida albicans; [6],25 µg/mL
same,MIC,Candida albicans; [7],3 µg/mL
same,MIC,Candida albicans; [8],3 µg/mL
same,MIC,Candida albicans; [9],3 µg/mL
same,MIC,Candida albicans; [10],25 µg/mL
same,MIC,Candida albicans; [32],6 µg/mL
same,MIC,Candida albicans; [11],1.5 µg/mL
same,MIC,Candida albicans; [12],12.5 µg/mL
same,MIC,Candida albicans; [13],1.5 µg/mL
same,MIC,Candida albicans; [14],6 µg/mL
same,MIC,Candida albicans; [16],6 µg/mL
same,MIC,Candida albicans; [17],3 µg/mL
same,MIC,Candida albicans; [18],6 µg/mL
same,MIC,Fusarium (bulb),6 µg/mL
same,MIC,Fusarium (tulip),6 µg/mL
same,MIC,Fusarium solani,9.3 µg/mL
same,MIC,Fusarium,3 µg/mL
same,MIC,Penicillium islandicum,3 µg/mL
same,MIC,Penicillium italicum,3 µg/mL
same,MIC,Penicillium patalum,3 µg/mL
same,MIC,Penicillium rubrum,3 µg/mL
same,MIC,Penicillium veridicatum,1.5 µg/mL
same,MIC,Rhizoctonia solani,2.3 µg/mL
same,MIC,Trichophyton equinum; [19],25 µg/mL
same,MIC,Trichophyton equinum; [20],6 µg/mL
same,MIC,[1]; [21],12.5 µg/mL
same,MIC,[1]; [22],12.5 µg/mL
same,MIC,[1]; [23],100 µg/mL
same,MIC,[1]; [24],50 µg/mL
same,MIC,[1]; [25],50 µg/mL
same,MIC,[1]; [26],12.5 µg/mL
same,MIC,Trichophyton quickeaneum,12.5 µg/mL
same,MIC,Trichophyton rubrum; [27],12.5 µg/mL
same,MIC,Trichophyton rubrum; [28],25 µg/mL
same,MIC,Trichophyton rubrum; [29],12.5 µg/mL
same,MIC,[2],25 µg/mL
same,MIC,[3],25 µg/mL
same,MIC,Trichophyton tonsurans,12.5 µg/mL
same,MIC,Trichophyton verrucosum; [30],25 µg/mL
same,MIC,Trichophyton verrucosum; [31],25 µg/mL
same,MIC,Trichophyton violoceum,50 µg/mL
